{"source": "patent US8394397B2", "about": "“Adhesive antineoplastic compositions” (Ed. Geistlich Soehne AG fuer Chemische Industrie, priority 2003, dated 2013)", "key": {"[1]": {"experiment": "Long-term release kinetics of taurolidine from fibrin sealant matrix over 14 days", "type": "physicochemical", "conditions": "for percentage of taurolidine released from the matrix: irrespective of loading concentrations", "method": "The long-term release kinetics of taurolidine was investigated by homogenously suspending different concentrations of taurolidine in the two components of the fibrin sealant in such a way that final concentrations (mg/ml) of 10, 40 and 80 mg/ml were achieved per 400 μl of fresh PBS at 24-hour intervals over a period of 14 days. The supernatants from the wells containing identical taurolidine concentrations were pooled. The taurolidine concentrations in the supernatants were determined."}, "[2]": {"system": "glial tumor cell lines LN18, LN229, U87MG, and ex vivo cells from a freshly isolated glioblastoma", "experiment": "Crystal violet assay of tumor cells incubated with taurolidine released from the matrices", "type": "cell-based", "method": "To determine whether the antineoplastic activity of taurolidine was affected by embedding in the matrix, the glial tumor cell lines LN18, LN229, U87MG, and ex vivo cells from a freshly isolated glioblastoma were incubated with taurolidine released from the matrices at different periods.\nThe LN18, LN229, and U87MG tumor cells and ex vivo cells from a glioblastoma were seeded in […] plastic cell culture flasks until a cell confluency of 80% was reached. The resulting cell suspensions were centrifuged at 1200 rpm for 5 min and then diluted to yield cell suspensions containing 5×10^4 cells per ml. Aliquots of 200 μl of the cell suspensions were pipetted into the wells of a 96-multiwell plate.\nAfter 12 hours when the cells were adherent the medium was removed and replaced by fresh medium. The cells were incubated for 24 hours and the taurolidine solution released at different time intervals from the matrices loaded with different taurolidine concentrations. Tumor cells incubated with the same volume of supernatant from fibrin sealant matrix without taurolidine were used as negative controls. Identically treated cells to which Fas-ligand at a concentration of 25% was added served as positive controls.\nAfter incubation for 24 hours, the supernatants were removed and 100 μl of crystal violet staining solution (0.5% crystal violet in 19.5% methanol and 80% distilled water) added. The solution was removed after 10 min and residual dye rinsed off with tap water. The plates were then left to air-dry for 12 hours followed by counting in a microplate counter at 540 nm."}, "[3]": {"conditions": "cited from earlier work"}, "[4]": {"experiment": "Taurolidine release from fibrin sealant matrix into PBS supernatant over 7 days", "type": "physicochemical", "conditions": "irrespective of initial taurolidine concentration, 37° C.", "method": "Different concentrations of taurolidine were homogenously suspended in the two components of the fibrin sealant. The two components were then mixed in wells of a 24-multiwell plate to prepare matrixes with identical total volumes of 400 μl per well containing final taurolidine concentrations of 10, 20, 40 and 80 mg/ml. The resulting thickness of the matrix was 2 mm ±0.4 mm. In addition, matrices with volumes of 400 μl and 800 μl containing 10 mg/ml or 40 mg/ml of taurolidine were prepared to investigate the effect of matrix size on taurolidine release. […] Matrices of identical volume and thickness without taurolidine served as controls. Supernatants of 400 μl phosphate-buffered saline (PBS) were added to each well after solidification. The multiwell plates were incubated at 37° C. The supernatants were pipetted off at 24-hour intervals over a period of 7 days and replaced by identical amounts of fresh PBS."}}}
{"smiles": "O=S1(=O)CCN(CN2CCS(=O)(=O)NC2)CN1", "note": "[Taurolidine, Bis-(1,1-dioxoperhydro-1,2,4-thiadiazinyl-4)methane]", "values": [{"measurement": "percentage of taurolidine released from the matrix", "setting": "[1]; after 10 days", "result": "98.93%±0.33"}, {"measurement": "percentage of taurolidine released from the matrix", "setting": "[1]; after 14 days", "result": "99.99%±0.02"}, {"measurement": "period over which antineoplastically effective amounts of taurolidine were released", "setting": "[1]; loading concentrations of 25 mg/ml or above", "result": 14, "unit": "days"}, {"measurement": "taurolidine released on day 14", "setting": "[1]; loading concentrations of 50 mg/ml or higher, day 14", "result": "over 100 μg/ml"}, {"measurement": "proliferation of tumor cell lines and ex vivo glioblastoma cells", "setting": "[2]; taurolidine released from matrices, 24 hours incubation", "result": "inhibited in an concentration-dependent manner"}, {"measurement": "reduction of cell counts", "setting": "[2]; taurolidine released on day 3, loading concentration 100 mg/ml", "result": "at least 60%"}, {"measurement": "effect on tumor cell proliferation", "setting": "[2]; taurolidine released on day 13 from TFM, initial loading concentration 10 mg/ml", "result": "no further effects on tumor cell proliferation"}, {"measurement": "water soluble up to", "setting": "[3]", "result": "up to 2%"}, {"measurement": "percentage of total taurolidine released from the matrix", "setting": "[4]; within 6 days", "result": "75.2±6.64", "unit": "%"}, {"measurement": "percentage of total taurolidine released from the matrix", "setting": "[4]; within the first 2 days", "result": "54.7±1.44", "unit": "%"}]}
